target: T1, JAK3 (Homo sapiens, UniProt P52333); assay: Inhibition of JAK3 kinase, LANCE Ultra TR-FRET assay; type: biochemical; conditions: 2x ATP 8 μM, 15 min pre-incubation, 90 min reaction, 23° C.
T1 construct: purchased Invitrogen PV4080
T1 sequence (P52333 1-1124): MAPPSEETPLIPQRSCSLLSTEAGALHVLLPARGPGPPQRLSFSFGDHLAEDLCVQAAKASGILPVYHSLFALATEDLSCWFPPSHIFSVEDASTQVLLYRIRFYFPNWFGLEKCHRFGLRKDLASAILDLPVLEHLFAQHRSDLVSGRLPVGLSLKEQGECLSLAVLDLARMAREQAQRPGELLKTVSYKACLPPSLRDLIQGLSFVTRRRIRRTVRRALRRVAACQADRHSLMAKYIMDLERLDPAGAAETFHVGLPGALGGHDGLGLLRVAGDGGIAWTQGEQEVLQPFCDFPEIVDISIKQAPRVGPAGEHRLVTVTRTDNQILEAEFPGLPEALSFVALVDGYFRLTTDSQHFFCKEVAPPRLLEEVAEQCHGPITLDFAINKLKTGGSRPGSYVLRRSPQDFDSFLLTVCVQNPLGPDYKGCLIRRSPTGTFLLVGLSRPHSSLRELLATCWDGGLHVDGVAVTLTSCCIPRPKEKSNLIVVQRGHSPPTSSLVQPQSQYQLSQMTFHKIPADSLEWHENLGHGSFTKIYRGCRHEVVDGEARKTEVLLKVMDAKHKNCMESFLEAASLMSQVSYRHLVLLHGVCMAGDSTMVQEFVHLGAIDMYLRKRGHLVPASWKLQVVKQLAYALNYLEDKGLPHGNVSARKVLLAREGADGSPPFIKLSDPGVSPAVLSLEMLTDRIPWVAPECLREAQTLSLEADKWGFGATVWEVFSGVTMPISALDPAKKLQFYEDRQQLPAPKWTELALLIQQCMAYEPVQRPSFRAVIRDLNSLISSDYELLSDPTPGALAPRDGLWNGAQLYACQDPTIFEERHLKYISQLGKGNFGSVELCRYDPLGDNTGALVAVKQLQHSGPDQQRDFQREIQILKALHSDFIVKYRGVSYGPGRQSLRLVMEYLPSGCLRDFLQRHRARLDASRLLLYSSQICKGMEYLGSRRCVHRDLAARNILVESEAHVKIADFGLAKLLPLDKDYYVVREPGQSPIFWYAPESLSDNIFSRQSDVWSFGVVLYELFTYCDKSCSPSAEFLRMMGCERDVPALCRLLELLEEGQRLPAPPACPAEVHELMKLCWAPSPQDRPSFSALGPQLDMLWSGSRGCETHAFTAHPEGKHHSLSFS
Description: (§1) Exemplary compounds were assayed to determine potency in inhibiting activity of JAK1-3 and TYK2 kinases by determining IC50 values.
(§2) The sources of test materials and equipment are as follows: JAK1 (Invitrogen, Cat. No PV4775), JAK2 (Invitrogen, Cat. No PV4210), JAK3 (Invitrogen, Cat. No PV4080), TYK2 (Invitrogen, Cat. No PR8440C), ATP (Sigma, Cat. No. A7699-1G), DMSO (Sigma, Cat. No. D2650), DTT (Sigma, Cat. No. 43815), 384 wells_compound plate (Greiner, Cat. No. 781280), 384 wells_assay plate (Perkin Elmer, Cat. No. 6007299), LANCE Ultra ULight™-JAK-1 peptide (Perkin Elmer, Cat. No. TRF0121), LANCET™ Eu-W1024 Anti-phosphotyrosine (PT66) (Perkin Elmer, Cat. No. AD0069), LANCET™ Detection Buffer(Perkin Elmer, Cat. No. CR97-100).
(§3) The concentrations of test compounds varied from 100 μM to 1.7 nM with 3-fold dilution, 11 points, in duplicates while the concentrations of the reference compound, Tofacitinib, varied from 1 μM to 0.017 nM with 3-fold dilution, 11 points, in duplicates.
(§4) The assay buffer contained 50 mM HEPES (pH 7.5), 0.01% Brij-35, 10 mM MgCl2, 1 mM EDTA, 2 mM DTT. Incubations were carried out at 23° C.
(§5) Prior to the assay, enzyme, peptide substrate and serially diluted test compounds were pre-incubated together in assay buffer (5 μL) for 15 minutes (peptide substrate concentration: 50 nM; JAK enzyme concentrations: 2 nM JAK1; […]; […] and 4 nM TYK2). And the assay was initiated by the addition of 5 μL assay buffer containing 2× final ATP concentration (these are the 2×ATP concentrations: 76 μM JAK1; 24 μM JAK2; 8 μM JAK3 and 30 μM TYK2). Following the 90-minute incubation, antibody conjugated with Eu is dissolved in detection buffer to add into wells and then incubated for 60 minutes. The 10 μL detection buffer contains EDTA to stop the enzymatic reaction. The plate is analyzed by Perkin Elmer Envision on TR-FRET mode. The high ratio of 665/615 represents no inhibition of kinase reaction while the low ratio of 665/615 represents complete inhibition of kinase reaction.
(§6) Curves are fit by XLFIT5 as inhibition rate % vs. log [compound concentration] using 4 parameters logistic model 205.
(§7) In the table, “A” indicates an IC50 of less than 100 nM, “B” indicates an IC50 range from 100 nM to 500 nM; “C” indicates an IC50 range from 500 nM to 2 μM; and “D” indicates an IC50 greater than 2 μM. Also, “na” indicates data is not available.

`CCn1nc(C(=O)CC#N)c2c1CCN(c1ncnc3[nH]ccc13)C2` [Compound 119] and `N#Cc1ccc(-c2nn(CCO)c3c2CN(c2ncnc4[nH]ccc24)CC3)cc1` [Compound 120] fall in the same range of IC50: 500 to 2000 nM for the first, 500 to 2000 nM for the second.

`COC(=O)[C@H]1C[C@H](NC(=O)c2nn(C)c3c2CN(c2ncnc4[nH]ccc24)CC3)C1` [Compound 121] and `CNC(=O)[C@H]1C[C@H](NC(=O)c2nn(C)c3c2CN(c2ncnc4[nH]ccc24)CC3)C1` [Compound 122] cannot be ordered by IC50: greater than 2000 nM for the first, greater than 2000 nM for the second.

First: Cn1nc(C(=O)N[C@H]2C[C@H](C(=O)NCCC(F)(F)F)C2)c2c1CCN(c1ncnc3[nH]ccc13)C2 [Compound 124]
Second: Cn1nc(C(=O)N[C@H]2C[C@H](C(=O)NS(C)(=O)=O)C2)c2c1CCN(c1ncnc3[nH]ccc13)C2 [Compound 125]
The IC50 of the first is higher: 500 to 2000 nM for the first, 100 to 500 nM for the second.

`CCS(=O)(=O)NC(=O)[C@H]1C[C@H](NC(=O)c2nn(C)c3c2CN(c2ncnc4[nH]ccc24)CC3)C1` [Compound 126] showed an IC50 of 100 to 500 nM.

target: T2, JAK1 (Homo sapiens, UniProt P23458); assay: Inhibition of JAK1 kinase, LANCE Ultra TR-FRET assay; type: biochemical; conditions: 2 nM JAK1, 2x ATP 76 μM, 15 min pre-incubation, 90 min reaction, 23° C.
T2 construct: purchased Invitrogen PV4775
Description: as §1, §2, §3, §4, §5, §6, §7

T2 sequence (P23458 whole entry): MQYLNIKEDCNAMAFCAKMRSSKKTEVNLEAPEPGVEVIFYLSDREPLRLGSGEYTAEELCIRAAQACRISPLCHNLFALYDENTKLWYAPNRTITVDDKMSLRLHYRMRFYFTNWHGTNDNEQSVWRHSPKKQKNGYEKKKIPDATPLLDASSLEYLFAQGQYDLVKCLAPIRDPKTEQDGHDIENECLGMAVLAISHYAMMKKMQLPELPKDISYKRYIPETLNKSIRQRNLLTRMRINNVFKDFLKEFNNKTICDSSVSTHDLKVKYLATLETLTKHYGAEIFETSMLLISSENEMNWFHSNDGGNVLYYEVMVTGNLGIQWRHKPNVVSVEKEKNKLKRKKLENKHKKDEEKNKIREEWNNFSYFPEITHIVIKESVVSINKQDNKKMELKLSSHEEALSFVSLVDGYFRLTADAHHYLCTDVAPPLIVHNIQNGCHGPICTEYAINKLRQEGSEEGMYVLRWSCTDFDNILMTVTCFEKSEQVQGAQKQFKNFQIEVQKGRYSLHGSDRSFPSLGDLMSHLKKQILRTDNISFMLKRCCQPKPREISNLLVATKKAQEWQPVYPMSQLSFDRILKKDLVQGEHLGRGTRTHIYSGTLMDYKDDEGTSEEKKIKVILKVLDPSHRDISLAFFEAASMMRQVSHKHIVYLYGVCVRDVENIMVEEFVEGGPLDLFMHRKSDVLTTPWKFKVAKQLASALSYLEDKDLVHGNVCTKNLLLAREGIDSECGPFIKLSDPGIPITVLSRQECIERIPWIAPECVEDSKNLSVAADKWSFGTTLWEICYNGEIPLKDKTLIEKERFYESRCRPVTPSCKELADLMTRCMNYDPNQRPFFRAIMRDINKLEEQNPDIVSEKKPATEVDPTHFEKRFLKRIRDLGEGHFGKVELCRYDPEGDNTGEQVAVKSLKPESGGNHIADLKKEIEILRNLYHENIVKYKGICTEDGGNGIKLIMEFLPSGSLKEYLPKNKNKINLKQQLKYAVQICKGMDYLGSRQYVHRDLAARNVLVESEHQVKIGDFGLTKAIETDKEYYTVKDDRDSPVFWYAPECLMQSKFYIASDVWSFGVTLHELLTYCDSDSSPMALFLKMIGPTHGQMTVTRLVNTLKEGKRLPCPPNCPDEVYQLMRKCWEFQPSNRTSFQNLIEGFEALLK

`COC(=O)[C@H]1C[C@H](NC(=O)c2nn(C)c3c2CN(c2ncnc4[nH]ccc24)CC3)C1` [Compound 121] and `CNC(=O)[C@H]1C[C@H](NC(=O)c2nn(C)c3c2CN(c2ncnc4[nH]ccc24)CC3)C1` [Compound 122] cannot be ordered by IC50: greater than 2000 nM for the first, greater than 2000 nM for the second.

First: Cn1nc(C(=O)N[C@H]2C[C@H](C(=O)NCCC(F)(F)F)C2)c2c1CCN(c1ncnc3[nH]ccc13)C2 [Compound 124]
Second: Cn1nc(C(=O)N[C@H]2C[C@H](C(=O)NS(C)(=O)=O)C2)c2c1CCN(c1ncnc3[nH]ccc13)C2 [Compound 125]
The IC50 of the first is higher: 500 to 2000 nM for the first, 100 to 500 nM for the second. The second is the more potent here.

`CCS(=O)(=O)NC(=O)[C@H]1C[C@H](NC(=O)c2nn(C)c3c2CN(c2ncnc4[nH]ccc24)CC3)C1` [Compound 126] gave an IC50 of 100 to 500 nM.

target: T3, JAK2 (Homo sapiens, UniProt O60674); assay: Inhibition of JAK2 kinase, LANCE Ultra TR-FRET assay; type: biochemical; conditions: 2x ATP 24 μM, 15 min pre-incubation, 90 min reaction, 23° C.
T3 construct: purchased Invitrogen PV4210
Description: as §1, §2, §3, §4, §5, §6, §7

T3 sequence (O60674 whole entry): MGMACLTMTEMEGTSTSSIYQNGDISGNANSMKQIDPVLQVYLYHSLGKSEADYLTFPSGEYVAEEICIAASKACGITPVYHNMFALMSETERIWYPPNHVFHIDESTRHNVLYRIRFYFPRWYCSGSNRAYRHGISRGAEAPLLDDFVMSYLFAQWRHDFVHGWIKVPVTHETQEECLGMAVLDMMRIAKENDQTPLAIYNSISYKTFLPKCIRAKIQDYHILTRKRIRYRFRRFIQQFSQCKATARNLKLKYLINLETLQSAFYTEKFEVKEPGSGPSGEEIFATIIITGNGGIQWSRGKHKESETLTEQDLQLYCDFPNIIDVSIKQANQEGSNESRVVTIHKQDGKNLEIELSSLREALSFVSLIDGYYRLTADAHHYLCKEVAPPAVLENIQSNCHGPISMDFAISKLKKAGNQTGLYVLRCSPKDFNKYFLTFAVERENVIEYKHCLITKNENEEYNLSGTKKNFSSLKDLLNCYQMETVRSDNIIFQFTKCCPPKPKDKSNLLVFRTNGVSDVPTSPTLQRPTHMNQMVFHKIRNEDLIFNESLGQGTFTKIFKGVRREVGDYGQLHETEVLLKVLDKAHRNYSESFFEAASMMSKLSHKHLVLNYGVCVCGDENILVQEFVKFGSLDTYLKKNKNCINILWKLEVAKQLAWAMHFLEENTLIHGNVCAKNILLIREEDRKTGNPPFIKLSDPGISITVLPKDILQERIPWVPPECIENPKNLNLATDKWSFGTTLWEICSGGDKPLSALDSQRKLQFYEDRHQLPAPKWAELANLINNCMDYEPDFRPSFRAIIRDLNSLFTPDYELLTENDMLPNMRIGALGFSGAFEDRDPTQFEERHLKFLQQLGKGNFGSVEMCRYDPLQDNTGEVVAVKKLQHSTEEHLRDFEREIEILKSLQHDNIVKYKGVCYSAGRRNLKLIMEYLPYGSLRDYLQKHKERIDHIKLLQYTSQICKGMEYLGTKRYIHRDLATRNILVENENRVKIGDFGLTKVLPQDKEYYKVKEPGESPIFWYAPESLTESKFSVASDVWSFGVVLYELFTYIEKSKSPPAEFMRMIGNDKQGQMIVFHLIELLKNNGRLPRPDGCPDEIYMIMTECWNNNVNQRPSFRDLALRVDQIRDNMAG

First: CCn1nc(C(=O)CC#N)c2c1CCN(c1ncnc3[nH]ccc13)C2 [Compound 119]
Second: N#Cc1ccc(-c2nn(CCO)c3c2CN(c2ncnc4[nH]ccc24)CC3)cc1 [Compound 120]
The IC50 of the first is higher: 500 to 2000 nM for the first, 100 to 500 nM for the second.

`COC(=O)[C@H]1C[C@H](NC(=O)c2nn(C)c3c2CN(c2ncnc4[nH]ccc24)CC3)C1` [Compound 121] and `CNC(=O)[C@H]1C[C@H](NC(=O)c2nn(C)c3c2CN(c2ncnc4[nH]ccc24)CC3)C1` [Compound 122] cannot be ordered by IC50: greater than 2000 nM for the first, greater than 2000 nM for the second.

First: Cn1nc(C(=O)N[C@H]2C[C@H](C(=O)NCCC(F)(F)F)C2)c2c1CCN(c1ncnc3[nH]ccc13)C2 [Compound 124]
Second: Cn1nc(C(=O)N[C@H]2C[C@H](C(=O)NS(C)(=O)=O)C2)c2c1CCN(c1ncnc3[nH]ccc13)C2 [Compound 125]
The IC50 of the first is higher: greater than 2000 nM for the first, 500 to 2000 nM for the second. The second is the more potent here.

For `CCS(=O)(=O)NC(=O)[C@H]1C[C@H](NC(=O)c2nn(C)c3c2CN(c2ncnc4[nH]ccc24)CC3)C1` [Compound 126], the IC50 was 500 to 2000 nM.

target: T4, TYK2 (Homo sapiens, UniProt P29597); assay: Inhibition of TYK2 kinase, LANCE Ultra TR-FRET assay; type: biochemical; conditions: 4 nM TYK2, 2x ATP 30 μM, 15 min pre-incubation, 90 min reaction, 23° C., read-out: tyk IC50
T4 construct: purchased Invitrogen PR8440C
Description: as §1, §2, §3, §4, §5, §6, §7

T4 sequence (P29597 whole entry): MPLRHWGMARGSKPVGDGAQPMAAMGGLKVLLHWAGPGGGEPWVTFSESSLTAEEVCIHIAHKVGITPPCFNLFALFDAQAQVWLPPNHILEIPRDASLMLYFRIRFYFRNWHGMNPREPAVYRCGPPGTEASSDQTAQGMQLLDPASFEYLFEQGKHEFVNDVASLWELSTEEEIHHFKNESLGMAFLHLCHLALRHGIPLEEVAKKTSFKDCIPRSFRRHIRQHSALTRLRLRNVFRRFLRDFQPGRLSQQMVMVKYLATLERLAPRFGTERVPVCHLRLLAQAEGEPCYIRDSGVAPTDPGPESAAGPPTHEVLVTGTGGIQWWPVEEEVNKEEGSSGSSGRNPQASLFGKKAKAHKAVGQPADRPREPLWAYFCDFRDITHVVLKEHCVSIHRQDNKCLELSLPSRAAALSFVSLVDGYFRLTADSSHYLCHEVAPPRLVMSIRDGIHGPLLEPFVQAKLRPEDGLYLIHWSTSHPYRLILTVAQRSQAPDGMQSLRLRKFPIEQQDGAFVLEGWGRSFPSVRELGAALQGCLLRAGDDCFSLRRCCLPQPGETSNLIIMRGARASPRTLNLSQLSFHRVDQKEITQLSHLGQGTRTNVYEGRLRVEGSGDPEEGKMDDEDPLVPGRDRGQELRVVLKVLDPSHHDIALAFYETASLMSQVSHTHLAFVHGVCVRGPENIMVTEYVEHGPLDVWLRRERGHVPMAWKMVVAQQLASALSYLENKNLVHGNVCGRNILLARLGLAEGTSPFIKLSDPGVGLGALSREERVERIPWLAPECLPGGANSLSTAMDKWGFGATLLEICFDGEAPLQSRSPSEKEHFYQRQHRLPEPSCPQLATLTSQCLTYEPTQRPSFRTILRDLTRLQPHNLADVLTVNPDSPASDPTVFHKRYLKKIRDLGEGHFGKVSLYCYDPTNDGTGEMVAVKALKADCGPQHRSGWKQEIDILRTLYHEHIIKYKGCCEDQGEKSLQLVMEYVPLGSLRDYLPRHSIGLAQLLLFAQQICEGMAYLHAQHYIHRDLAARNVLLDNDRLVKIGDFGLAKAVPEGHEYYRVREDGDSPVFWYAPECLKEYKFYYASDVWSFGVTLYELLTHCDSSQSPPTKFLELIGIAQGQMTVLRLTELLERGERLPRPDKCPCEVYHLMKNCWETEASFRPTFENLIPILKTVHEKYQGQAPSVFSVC

`COC(=O)[C@H]1C[C@H](NC(=O)c2nn(C)c3c2CN(c2ncnc4[nH]ccc24)CC3)C1` [Compound 121] and `CNC(=O)[C@H]1C[C@H](NC(=O)c2nn(C)c3c2CN(c2ncnc4[nH]ccc24)CC3)C1` [Compound 122] cannot be ordered by IC50: greater than 2000 nM for the first, greater than 2000 nM for the second.

`Cn1nc(C(=O)N[C@H]2C[C@H](C(=O)NCCC(F)(F)F)C2)c2c1CCN(c1ncnc3[nH]ccc13)C2` [Compound 124] and `Cn1nc(C(=O)N[C@H]2C[C@H](C(=O)NS(C)(=O)=O)C2)c2c1CCN(c1ncnc3[nH]ccc13)C2` [Compound 125] cannot be ordered by IC50: greater than 2000 nM for the first, greater than 2000 nM for the second.

`CCS(=O)(=O)NC(=O)[C@H]1C[C@H](NC(=O)c2nn(C)c3c2CN(c2ncnc4[nH]ccc24)CC3)C1` [Compound 126] showed an IC50 greater than 2000 nM.
